Experimental findings from article PMC5908784, “Extracellular loops 2 and 3 of the calcitonin receptor selectively modify agonist binding and efficacy” (Biochemical Pharmacology, 2018) are described below.

Holding throughout (assay): IP1 accumulation
Type in all cases: cell-based

One test addresses T1, hCTR F359A (Homo sapiens, UniProt P30988, F359A).
T1 construct: expressed in transfected cells
T1 sequence (P30988 25-474 F359A): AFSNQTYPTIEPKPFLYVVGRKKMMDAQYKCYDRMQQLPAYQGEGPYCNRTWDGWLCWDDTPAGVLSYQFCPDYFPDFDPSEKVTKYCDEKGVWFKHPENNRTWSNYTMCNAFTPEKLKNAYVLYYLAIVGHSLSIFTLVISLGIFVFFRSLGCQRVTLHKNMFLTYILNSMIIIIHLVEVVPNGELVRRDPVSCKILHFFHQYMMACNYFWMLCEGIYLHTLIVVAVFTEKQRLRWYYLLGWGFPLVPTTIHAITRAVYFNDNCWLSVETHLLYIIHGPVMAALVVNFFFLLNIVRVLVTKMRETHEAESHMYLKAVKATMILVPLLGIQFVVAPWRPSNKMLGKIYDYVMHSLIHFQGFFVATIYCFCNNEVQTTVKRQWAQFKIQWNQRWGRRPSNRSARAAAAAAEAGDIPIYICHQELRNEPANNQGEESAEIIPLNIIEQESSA
The settings on record: for Emax: read-out: Emax (% WT), SEM. A digest of the protocol: (§1)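 HTRF IP-One readout of IP1 after 60 min ligand stimulation (LiCl present), cells seeded overnight. Normalized to 100 μM ATP max response. EC50/Emax via 3-parameter logistic curve fit.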

Another test deals with T2, hCTR V357A (Homo sapiens, UniProt P30988, V357A).
T2 construct: c-Myc (N); expressed in transfected cells
T2 sequence (P30988 25-474 V357A): T1 sequence (P30988 25-474 F359A) with V333A, A335F
Conditions: mean ± S.E.M.; for Emax: IP1 maximal response, SEM. A digest of the protocol:
as §1

In another test the target is T3, hCTR R362A (Homo sapiens, UniProt P30988, R362A).
T3 construct: expressed in transfected cells
T3 sequence (P30988 25-474 R362A): T1 sequence (P30988 25-474 F359A) with A335F, R338A
The settings on record: mean ± S.E.M.; for Emax: IP1 maximal response, SEM. A digest of the protocol: as §1

A further test deals with T4, hCTR S364A (Homo sapiens, UniProt P30988, S364A).
T4 construct: c-Myc (N); expressed in transfected cells
T4 sequence (P30988 25-474 S364A): T1 sequence (P30988 25-474 F359A) with A335F, S340A
The settings on record: mean ± S.E.M.; for Emax: IP1 maximal response, SEM. A digest of the protocol:
as §1

Another test has as its target T5, hCTR H296A (Homo sapiens, UniProt P30988, H296A).
T5 construct: c-Myc (N); expressed in transfected cells
T5 sequence (P30988 25-474 H296A): T1 sequence (P30988 25-474 F359A) with H272A, A335F
Conditions: mean ± S.E.M.; for Emax: IP1 maximal response, SEM. In short, it runs like this:
as §1

Setting [1] is: IP1, CV1-FlpIn cells, 60 min, LiCl.

Where a chain is given by its changes, count along the chain named. Like-named read-outs stand apart in the source and are kept apart here. Where a SMILES comes first, the peptide text is derived from it. Bridges are numbered along the chain shown (N, C = ends).

One may read the Emax as the greatest response seen or fitted, relative to the assay's reference. What is called EC50 is the concentration that produces a half-maximal response.

As to `CC[C@H](C)[C@H](NC(=O)[C@H](C)NC(=O)[C@@H](NC(=O)[C@H](CCC(N)=O)NC(=O)[C@@H]1CCCN1C(=O)[C@H](Cc1ccccc1)NC(=O)[C@@H](NC(=O)[C@H](Cc1c[nH]cn1)NC(=O)[C@H](Cc1ccccc1)NC(=O)[C@H](CCCCN)NC(=O)[C@H](CC(N)=O)NC(=O)[C@H](Cc1ccccc1)NC(=O)[C@H](CC(=O)O)NC(=O)[C@H](CCC(N)=O)NC(=O)[C@@H](NC(=O)[C@H](Cc1ccc(O)cc1)NC(=O)[C@@H](NC(=O)CNC(=O)[C@H](CC(C)C)NC(=O)[C@H](CCSC)NC(=O)[C@@H]1CSSC[C@H](N)C(=O)NCC(=O)N[C@@H](CC(N)=O)C(=O)N[C@@H](CC(C)C)C(=O)N[C@@H](CO)C(=O)N[C@@H]([C@@H](C)O)C(=O)N1)[C@@H](C)O)[C@@H](C)O)[C@@H](C)O)[C@@H](C)O)C(=O)NCC(=O)N[C@H](C(=O)NCC(=O)N[C@@H](C)C(=O)N1CCC[C@H]1C(N)=O)C(C)C` [hCT], the Emax on hCTR F359A was found to be 101 ± 9%; on hCTR V357A, 50 ± 4%; on hCTR R362A, 77 ± 11%; on hCTR S364A, 93 ± 8%; at hCTR H296A, 73 ± 6%.
As for `CSCC[C@H](NC(=O)CNC(=O)[C@H](CO)NC(=O)[C@H](Cc1ccccc1)NC(=O)[C@H](CCCNC(=N)N)NC(=O)[C@H](Cc1c[nH]cn1)NC(=O)[C@H](Cc1ccccc1)NC(=O)[C@H](CC(N)=O)NC(=O)[C@H](CC(N)=O)NC(=O)[C@H](CC(C)C)NC(=O)[C@H](CC(N)=O)NC(=O)[C@H](CCCNC(=N)N)NC(=O)[C@H](Cc1c[nH]c2ccccc12)NC(=O)[C@H](Cc1ccc(O)cc1)NC(=O)[C@H](C)NC(=O)[C@H](CO)NC(=O)[C@H](CC(C)C)NC(=O)[C@@H](NC(=O)[C@@H]1CSSC[C@H](N)C(=O)N[C@@H](CO)C(=O)N[C@@H](CC(N)=O)C(=O)N[C@@H](CC(C)C)C(=O)N[C@@H](CO)C(=O)N[C@@H]([C@@H](C)O)C(=O)N1)C(C)C)C(=O)NCC(=O)N[C@@H](Cc1ccccc1)C(=O)NCC(=O)N1CCC[C@H]1C(=O)N[C@@H](CCC(=O)O)C(=O)N[C@H](C(=O)N1CCC[C@H]1C(N)=O)[C@@H](C)O` [pCT] (H-CSNLSTCVLSAYWRNLNNFHRFSGMGFGPETP-NH2; disulfide 1-7), the EC50 is 0.0132 µM at hCTR F359A (F359A, IP1, CV1-FlpIn cells, 60 min, LiCl, mean ± S.E.M.); 0.0155 µM at hCTR V357A (setting [1]); 0.0195 µM on hCTR R362A (setting [1]); 0.00692 µM at hCTR S364A (setting [1]); 0.00447 µM at hCTR H296A (setting [1]). Moreover, the Emax came to 77 ± 6% on hCTR F359A (F359A, IP1 maximal response, mean ± S.E.M.); 48 ± 4% at hCTR V357A; 47 ± 9% on hCTR R362A; 93 ± 6% on hCTR S364A; 101 ± 7% at hCTR H296A.
For `CC(C)C[C@H](NC(=O)[C@H](CCCCN)NC(=O)CNC(=O)[C@H](CC(C)C)NC(=O)[C@@H](NC(=O)[C@@H]1CSSC[C@H](N)C(=O)N[C@@H](CO)C(=O)N[C@@H](CC(N)=O)C(=O)N[C@@H](CC(C)C)C(=O)N[C@@H](CO)C(=O)N[C@@H]([C@@H](C)O)C(=O)N1)C(C)C)C(=O)N[C@@H](CO)C(=O)N[C@@H](CCC(N)=O)C(=O)N[C@@H](CCC(=O)O)C(=O)N[C@@H](CC(C)C)C(=O)N[C@@H](Cc1c[nH]cn1)C(=O)N[C@@H](CCCCN)C(=O)N[C@@H](CC(C)C)C(=O)N[C@@H](CCC(N)=O)C(=O)N[C@H](C(=O)N[C@@H](Cc1ccc(O)cc1)C(=O)N1CCC[C@H]1C(=O)N[C@@H](CCCNC(=N)N)C(=O)N[C@H](C(=O)N[C@@H](CC(N)=O)C(=O)N[C@H](C(=O)NCC(=O)N[C@@H](CO)C(=O)NCC(=O)N[C@H](C(=O)N1CCC[C@H]1C(N)=O)[C@@H](C)O)[C@@H](C)O)[C@@H](C)O)[C@@H](C)O` [sCT], the Emax on hCTR F359A turned out to be 125 ± 6%; on hCTR V357A, 39 ± 3%; at hCTR R362A, 64 ± 5%; at hCTR S364A it was 87 ± 6%; at hCTR H296A, 101 ± 5%.
